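Cells were grown in 96-well plates and exposed to each compound for 48 hours at five concentrations; endpoints were interpolated linearly between bracketing concentrations, or set to the highest concentration if not reached. TGI is the concentration that stops growth completely.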
Legend:
Experiment in all cases: NCI-60 cell line screen, 48 h
HCC-2998 colon = tested on: HCC-2998 colon
HCT-116 colon = tested on: HCT-116 colon
HOP-62 NSCLC = tested on: HOP-62 NSCLC
HS 578T breast = tested on: HS 578T breast
HT29 colon = tested on: HT29 colon
IGROV1 ovarian = tested on: IGROV1 ovarian
KM12 colon = tested on: KM12 colon
LOX IMVI melanoma = tested on: LOX IMVI melanoma
NCI-H522 lung = tested on: NCI-H522 lung
NCI/ADR-RES ovarian = tested on: NCI/ADR-RES ovarian
SF-268 CNS = tested on: SF-268 CNS
SK-OV-3 ovarian = tested on: SK-OV-3 ovarian
UO-31 renal = tested on: UO-31 renal

SMILES	TGI (HCC-2998 colon)	TGI (HCT-116 colon)	TGI (HOP-62 NSCLC)	TGI (HS 578T breast)	TGI (HT29 colon)	TGI (IGROV1 ovarian)	TGI (KM12 colon)	TGI (LOX IMVI melanoma)	TGI (NCI-H522 lung)	TGI (NCI/ADR-RES ovarian)	TGI (SF-268 CNS)	TGI (SK-OV-3 ovarian)	TGI (UO-31 renal)
NS(=O)(=O)c1ccc(NC(=S)/N=C/c2c(O)c3ccccc3[nH]c2=O)cc1	> 100 µM	> 100 µM	> 100 µM	> 100 µM	> 100 µM	> 100 µM	> 100 µM	> 100 µM	> 100 µM	> 100 µM	> 100 µM	> 100 µM	> 100 µM
Cc1ccc(/C(O)=C/c2nc3ccccc3nc2NC23CC4CC(CC(C4)C2)C3)cc1	> 10 µM	> 10 µM	> 10 µM	> 10 µM	> 10 µM	> 10 µM	> 10 µM	> 10 µM	> 10 µM	> 10 µM	> 10 µM	> 10 µM	
COc1ccc(/C=C/C(=O)c2cccc(C(=O)/C=C/c3ccc(OC)c(OC)c3)n2)cc1OC	> 100 µM	27.6 µM	> 100 µM	> 95.5 µM	31.6 µM	> 95.5 µM	> 100 µM	10.6 µM	23.1 µM	> 86.8 µM	> 89.3 µM	> 100 µM	43.4 µM
CN(C(=O)C12C3C4C1C1C2C3C41C(=O)O)C(C)(C)C (configuration not stated)	> 100 µM	> 100 µM	> 100 µM	> 100 µM	> 100 µM	> 100 µM	> 100 µM	> 100 µM	> 100 µM	> 100 µM	> 100 µM		> 100 µM
O=c1cnn(C/C=C/CP(=O)(O)O)c(=O)[nH]1	> 100 µM		> 100 µM	> 100 µM		> 100 µM	> 100 µM	> 100 µM	> 100 µM	> 100 µM	> 100 µM		> 100 µM
COc1ccc(-c2c(C#N)c(N)n(C3OCC(O)C(O)C3O)c(=S)c2C#N)cc1 (configuration not stated)	> 100 µM		> 100 µM	> 100 µM	> 100 µM	> 100 µM	> 100 µM	> 100 µM	> 100 µM	> 100 µM	> 100 µM	> 100 µM	> 100 µM
Nc1ccc2c(c1)N(C(=O)CCCC(=O)N1CC(CCl)c3ccc(N)cc31)CC2CCl (configuration not stated)	> 50 µM	> 50 µM	8.94 µM	1.94 µM	> 13.5 µM	> 11.3 µM	3.99 µM	11.3 µM	0.286 µM	42.7 µM	3.31 µM	48.6 µM	2.74 µM
N#Cc1cccc(Nc2ccccc2SSc2ccccc2Nc2cccc(C#N)c2)c1	> 21.5 µM	16.5 µM	> 21.5 µM	> 14.6 µM	15.3 µM	16.9 µM	16.2 µM	8.88 µM	12.2 µM	19.7 µM	> 21.5 µM	> 21.5 µM	
COC(=O)CC[N+]1([O-])CC1	> 100 µM	> 100 µM	> 100 µM	> 100 µM	> 100 µM	> 100 µM	> 100 µM	> 100 µM		> 100 µM	> 100 µM	> 100 µM	> 100 µM
COc1ccc(OC)c2sc(N3C(=O)/C(=C/c4ccc(N(C)C)cc4)N=C3c3ccccc3)nc12	> 100 µM	> 100 µM	> 100 µM	> 100 µM	> 100 µM	> 100 µM	> 100 µM	> 100 µM		> 100 µM	> 100 µM	> 100 µM	> 100 µM
CCOC(=O)C(C)c1nc2cc(F)c(N3CCOCC3)cc2[nH]c1=O (configuration not stated)	> 100 µM	> 100 µM	> 100 µM	> 100 µM	> 100 µM	> 100 µM	> 100 µM		> 100 µM	> 100 µM	> 100 µM	> 100 µM	> 100 µM
CCOC(=O)CCN1C(=O)c2ccc(NC(=O)C(=O)O)cc2S1(=O)=O	> 100 µM	> 100 µM	> 100 µM	> 100 µM	> 100 µM	> 100 µM	> 100 µM	> 100 µM	> 100 µM	> 100 µM		> 100 µM	> 100 µM
O=[N+]([O-])/C(C(Cl)=C(Cl)Cl)=C(\Nc1cccc2cccnc12)Sc1ccccc1	> 100 µM	39 µM	80.7 µM	38 µM	73.6 µM		28.6 µM			63.5 µM	42 µM	> 100 µM	49.7 µM
N#CCN(Cc1ccccc1)[C@H]1CCC[C@]1(O)/C=C/c1ccc2c(c1)OCO2	33.4 µM		82.6 µM	43 µM	29.8 µM	92.2 µM	45.3 µM	29.4 µM	32.1 µM	42 µM	> 100 µM	> 100 µM	> 100 µM
Clc1ccccc1-c1nn2c(CCCCCCCCc3nnc4sc(-c5ccccc5Cl)nn34)nnc2s1	> 100 µM	> 100 µM	> 100 µM	> 100 µM	> 100 µM		> 100 µM	> 100 µM	> 100 µM	> 100 µM	> 100 µM	> 100 µM	> 100 µM
C=CCN1C(=O)/C(=C/c2ccccc2)N=C1SC/C=C/C	76.6 µM	> 100 µM	> 100 µM	> 100 µM		> 100 µM	> 100 µM	> 100 µM	> 100 µM	> 100 µM	> 100 µM	> 100 µM	> 100 µM
COC(=O)/N=[N+](\[O-])C(c1ccc(Cl)cc1)c1ccc(Cl)cc1	> 100 µM	95.3 µM		> 100 µM	> 100 µM	> 100 µM	> 100 µM	43.6 µM	> 100 µM	> 100 µM	> 100 µM	> 100 µM	51.2 µM
N#Cc1c(Cl)cccc1Oc1ccc(S(=O)(=O)/N=C(\NO)Nc2ccc(Cl)cc2)cc1	29 µM	27.2 µM	34.1 µM	71.1 µM	31.5 µM	34.4 µM	31.2 µM	32 µM	35.6 µM	48 µM	46.9 µM		27.2 µM
COc1ccccc1-c1n[nH]c(-c2ccccc2O)n1	> 100 µM	> 100 µM	> 100 µM	> 100 µM	> 100 µM		> 100 µM	> 100 µM		> 100 µM	> 100 µM	> 100 µM	> 100 µM
c1ccc2nc3c(nc2c1)sc1nc2ccccc2n13	> 100 µM	> 100 µM		> 100 µM	> 100 µM	> 100 µM	> 100 µM	> 100 µM		> 100 µM	> 100 µM	> 100 µM	> 100 µM
COC(=O)C1=C(O)C(C(=O)OC)[C@]2(O)[C@H](C(=O)OC)[C@H]1C[C@@H](c1ccc(O)cc1)[C@H]2C(=O)OC (some centres not stated)	46.5 µM	94.3 µM	55.4 µM	87.3 µM	> 100 µM	> 100 µM	49.9 µM	> 100 µM		> 100 µM	> 100 µM	61.6 µM	> 100 µM
CC1(C)C2CC1C(/C=N\OCC(=O)O)=CC2=O (configuration not stated)	> 100 µM	> 100 µM	> 100 µM	> 100 µM	> 100 µM	> 100 µM	> 100 µM	> 100 µM		> 100 µM	> 100 µM	> 100 µM	> 100 µM
CNc1nc2c(C)ccc3nc(N(C)C)nc-3c2n1C	> 10 µM	> 10 µM	> 10 µM	> 10 µM	> 10 µM	> 10 µM	> 10 µM		> 10 µM	> 10 µM	> 10 µM	> 10 µM	> 10 µM
CC(=O)N1c2ccccc2C2=NN=C(N(C)C)SC21 (configuration not stated)	12.5 µM	10.1 µM	23.4 µM	52.4 µM	20.5 µM		11.2 µM	14.1 µM	6.68 µM	10.4 µM	16 µM		9.89 µM
Nc1nc([O-])c([I+]c2ccccc2)c(=O)[nH]1	> 100 µM	> 100 µM	> 100 µM	> 100 µM	> 100 µM	> 100 µM	> 100 µM	> 100 µM	> 100 µM	> 100 µM	> 100 µM		> 100 µM
COC(=O)C1=C(O)C(C(=O)OC)[C@]2(O)[C@H](C(=O)OC)[C@H]1C[C@@H](c1ccc(Cl)cc1Cl)[C@H]2C(=O)OC (some centres not stated)	21.9 µM	18.9 µM	20.9 µM	> 100 µM	27.4 µM	19.3 µM	32.9 µM	18.7 µM		38.2 µM	38.1 µM	47.9 µM	21.1 µM
O=C(/C=C/c1ccsc1)c1cccs1	34.7 µM	31.1 µM	> 100 µM	> 100 µM	> 100 µM	> 100 µM	35.1 µM		39.4 µM	44.9 µM	81.2 µM	> 100 µM	34.3 µM
COc1ccc2c(c1)nc1n2C(c2c(F)cccc2F)SC1 (configuration not stated)	> 100 µM	> 100 µM	> 100 µM	> 100 µM	> 100 µM	> 100 µM	> 100 µM	> 100 µM		> 100 µM	> 100 µM	> 100 µM	> 100 µM

— PubChem BioAssay (NCI)
